Data reported in publication PMC7795425, “Synthesis and Biological Activity of Brassinosteroid Analogues with a Nitrogen-Containing Side Chain” (International Journal of Molecular Sciences, 2020).
Entries after “also recorded” stand apart in the source; their conditions may differ.

How the values were obtained:
rice leaf lamina = tested on: rice leaf lamina; parameters: method as in PMID 11674612; conditions: all doses studied; cited from earlier work
[1] = tested on: Arabidopsis thaliana L. (Columbia ecotype, Col-0) seedlings; test: Arabidopsis root sensitivity bioassay; assay type: in vivo; conditions: for root length, mean: 7-day-old seedlings; for elongation of roots (growth-promoting activity) compared to the control: low concentrations (0.1 and 1 nM)
Procedure: Several bioassays such as the first bean internode, root growth and rice lamina inclination have been developed to evaluate the growth-promoting activity of BR derivatives. In this work, the activity of new BR analogues was evaluated using the Arabidopsis root sensitivity test because of its simplicity and high sensitivity for BRs.. The characteristic effect of exogenously applied BRs on light-grown Arabidopsis is dose-dependent—BRs in higher concentrations cause inhibition of root growth; vice versa, low concentrations are stimulating. The results obtained for 24-epiBL, which was used as a positive control, and the BR derivatives are shown in Figure 2, Figure 3 and Figure S21. […] A similar trend was shown for dimethylammonium hydrochloride 22a and morpholinium hydrochloride 22e with a long side chain. For numerical values of the average, SD and p-value, see Table S2.
The biological activity of the new BRs derivatives was tested by an Arabidopsis sensitivity bioassay which was performed according to [28]. Briefly, seedlings of Arabidopsis thaliana L. (Columbia ecotype, Col-0) were stratified for 2 days at 4 °C and germinated on vertical half-strength Murashige and Skoog (1% w/v sucrose) agar at 22 °C in a 16 h/8 h light–dark cycle. The plates contained concentrations of 24-epiBL (as positive control) and BR derivatives ranging from 0.1 to 10 nM, respectively 100 nM (for selected derivatives only). After 7 days, roots were straightened on solid media plates and scanned with an Epson high-resolution scanner. The entire root length was measured with ImageJ (http://rsbweb.nih.gov/ij/). For each treatment, more than 15 seedlings were analyzed in two biological repeats, and p-values were calculated with the two-tailed Student t-test using Excel software.
(§1) Figure 2 Effect of selected brassinosteroid derivatives on the inhibition of Arabidopsis root length. Seven-day-old Arabidopsis thaliana seedlings (Columbia ecotype, Col-0) were treated with DMSO as control/24epiBL/BR short side chain derivatives; (A)—amides, (B)—amines, (C)—ammonium hydrochlorides. For each treatment, more than 15 seedlings were analyzed in two biological repeats. Error bars represent SD. Asterisks represent significant changes (t-test); * represents p-value < 0.05, in comparison to control.
as §1, with “Figure 3” for “Figure 2”, “control/24epiBL/BR long” for “control/24epiBL/BR short”, “(A)—amides, (B)—ammonium” for “(A)—amides, (B)—amines, (C)—ammonium”
Table S2: Data for figure 2, 3, and S21. P value <0.05(t-test), comparison to control.
control (mean ± SD) 16.3 ± 1.21
*only selected compounds were tested
mean(mm) SD t-test mean (mm) SD t-test mean (mm) SD t-test mean (mm) SD t-test
(1 picture or pasted object on this page, not shown here)

[2] = Calcein AM cytotoxicity assay, CEM; assay type: cell-based; conditions: human, CEM T-lymphoblastic leukemia cells, IC50 > 50 µM means inactive, read-out: Cytotoxic activity IC50
Procedure: (§2) The effect of the prepared BRs derivatives on the viability (in Calcein AM assays) of BJ human fibroblasts (as an example of a “normal” cell line) and human cancer cell lines of various histopathological origins, including: T-lymphoblastic leukemia CEM, breast carcinoma MCF7 and cervical carcinoma cell line HeLa, was also studied. Cells of all these lines were exposed to six 3-fold dilutions of each drug for 72 h prior to determination of cell survival. The IC50 (concentration leading to 50% inhibition of viability) values obtained from the Calcein AM cytotoxicity assay were calculated. […] All tested BR nitrogen-containing derivatives had no detectable activity, even when tested in concentrations of up to 50 µM.
(§3) The screening cell lines: T-lymphoblastic leukemia CEM; breast carcinoma MCF7 (estrogen-sensitive); cervical carcinoma cell line HeLa; and human foreskin fibroblasts BJ, were obtained from the American Type Culture Collection (Manassas, VA, USA). Cells were cultured in DMEM (Dulbecco’s Modified Eagle Medium, Sigma, St. Louis, MO, USA). Media used were supplemented with 10% fetal bovine serum, 2mM L-glutamine and 1% penicillin–streptomycin. The cell lines were maintained under standard cell culture conditions at 37 °C and 5% CO2 in a humid environment.
(§4) Cells were subcultured twice or three times a week using the standard trypsinization procedure. Cytotoxicity in cancer cell lines after 72 h was determined as described earlier. Control cultures were treated with DMSO alone, and the final concentration of DMSO in the mixture never exceeded 0.6%. Six serial 3-fold dilutions of the test substances were added at time zero in 20 μL aliquots to the microtiter plate wells and the highest final concentration in the wells was 50 μM.
(§5) Table S3: Cytotoxic activities, IC50 (µM/L)a, of compounds in three tumor and one normal fibroblast
(§6) Compound CEM MCF7 HeLa BJ
(§7) a The lowest concentration that kills 50% of cells.
(§8) b Increase of cell proliferation.

[3] = Calcein AM cytotoxicity assay, BJ; assay type: cell-based; conditions: human, BJ foreskin fibroblasts (normal cell line), IC50 > 50 µM means inactive, read-out: Cytotoxic activity IC50
Procedure: as §2, §3, §4, §5, §6, §7, §8

[4] = Calcein AM cytotoxicity assay, MCF7; assay type: cell-based; conditions: human, MCF7 breast carcinoma cells (estrogen-sensitive), MCF7, 72 h, IC50 > 50 µM means inactive, read-out: Cytotoxic activity IC50
Procedure: as §2, §3, §4, §5, §6, §7, §8

[5] = Calcein AM cytotoxicity assay, HeLa; assay type: cell-based; conditions: human, HeLa cervical carcinoma cells, IC50 > 50 µM means inactive, read-out: Cytotoxic activity IC50
Procedure: as §2, §3, §4, §5, §6, §7, §8

[6] = tested on: T-lymphoblastic leukemia CEM; parameters: method as in PMID 17869317; conditions: CEM cells; positive control; cited from earlier work
[7] = 100 nM (only selected compounds), control 14.61 ± 0.85

Compound	biological activity in rice lamina inclination (rice leaf lamina)	root length, mean ([1]; 0.1 nM, control 16.3 ± 1.21) [mm]	root length, mean ([1]; 1 nM, control 16.3 ± 1.21) [mm]	root length, mean ([1]; 10 nM, control 16.3 ± 1.21) [mm]	IC50 at 72 h [2] [µM]	IC50 at 72 h [3] [µM]	melting point	IC50 at 72 h [4] [µM]	IC50 at 72 h [5] [µM]	root length, mean [1, 7] [mm]	elongation of roots (growth-promoting activity) compared to the control [1]	inhibitory effect on Arabidopsis root growth ([1]; tested 0.1 to 10 nM, selected derivatives also 100 nM)	IC50 [6] [µM]
25-azabrassinolide	completely inactive; also recorded: no biological activity	–	–	–	–	–	–	–	–	–	–	–	–
C[C@H]([C@@H](O)[C@H](O)C(=O)N1CCCCC1)[C@H]1CC[C@H]2[C@@H]3CC(=O)[C@H]4C[C@H](O)[C@H](O)C[C@]4(C)[C@H]3CC[C@]12C [20d, 1-((20S,22R,23S)-2α,3α,22,23-tetrahydroxy-6-oxo-5α-cholan-24-oyl)piperidine]	–	14.37	14.50	14.51	> 50	> 50	> 200 °C (dec.)	> 50	> 50	–	–	–	–
C[C@H]([C@@H](O)[C@H](O)C(=O)N1CCOCC1)[C@H]1CC[C@H]2[C@@H]3CC(=O)[C@H]4C[C@H](O)[C@H](O)C[C@]4(C)[C@H]3CC[C@]12C [20e, 4-((20S,22R,23S)-2α,3α,22,23-tetrahydroxy-6-oxo-5α-cholan-24-oyl)morpholine]	–	17.44	16.78	15.97	> 50	> 50	> 210 °C (dec.)	> 50	> 50	–	–	–	–
C[C@H]([C@@H](O)[C@@H](O)CN(C)C)[C@H]1CC[C@H]2[C@@H]3CC(=O)[C@H]4C[C@H](O)[C@H](O)C[C@]4(C)[C@H]3CC[C@]12C.Cl [22a, N,N-dimethyl-((20S,22R,23S)-2α,3α,22,23-tetrahydroxy-6-oxo-5α-cholan-24-yl)aminium chloride]	–	19.56	18.17	17.11	> 50	> 50	> 270 °C (dec.)	> 50	> 50	13.464	interesting growth-promoting activity	–	–
CCN(CC)C[C@H](O)[C@H](O)[C@@H](C)[C@H]1CC[C@H]2[C@@H]3CC(=O)[C@H]4C[C@H](O)[C@H](O)C[C@]4(C)[C@H]3CC[C@]12C.Cl [22b, N,N-diethyl-((20S,22R,23S)-2α,3α,22,23-tetrahydroxy-6-oxo-5α-cholan-24-yl)aminium chloride]	–	14.51	15.32	15.48	> 50	> 50	> 250 °C (dec.)	> 50	> 50	15.160	–	the same effect only at low concentrations	–
C[C@H]([C@@H](O)[C@@H](O)CN1CCCC1)[C@H]1CC[C@H]2[C@@H]3CC(=O)[C@H]4C[C@H](O)[C@H](O)C[C@]4(C)[C@H]3CC[C@]12C.Cl [22c, 1-((20S,22R,23S)-2α,3α,22,23-tetrahydroxy-6-oxo-5α-cholan-24-yl)pyrrolidinium chloride]	–	15.97	14.83	15.81	> 50	> 50	> 250 °C (dec.)	> 50	> 50	–	–	–	–
C[C@H]([C@@H](O)[C@@H](O)CN1CCCCC1)[C@H]1CC[C@H]2[C@@H]3CC(=O)[C@H]4C[C@H](O)[C@H](O)C[C@]4(C)[C@H]3CC[C@]12C.Cl [22d, 1-((20S,22R,23S)-2α,3α,22,23-tetrahydroxy-6-oxo-5α-cholan-24-yl)piperidinium chloride]	–	15.48	15.97	16.62	> 50	> 50	> 250 °C (dec.)	> 50	> 50	–	–	–	–
C[C@H]([C@@H](O)[C@@H](O)CN1CCOCC1)[C@H]1CC[C@H]2[C@@H]3CC(=O)[C@H]4C[C@H](O)[C@H](O)C[C@]4(C)[C@H]3CC[C@]12C.Cl [22e, 4-((20S,22R,23S)-2α,3α,22,23-tetrahydroxy-6-oxo-5α-cholan-24-yl)morpholinium chloride]	–	17.93	17.27	16.95	> 50	> 50	> 270 °C (dec.)	> 50	> 50	–	interesting growth-promoting activity	–	–
CCC(C(C)C)C(O)C(O)C(C)C1CCC2C3CC(=O)C4CC(O)C(O)CC4(C)C3CCC12C (stereo not drawn) [28-Homocastasterone]	–	–	–	–	–	–	–	–	–	–	–	–	13
